These results are taken from patent US11799117B2, “Flow batteries incorporating a nitroxide compound within an aqueous electrolyte solution” (LOCKHEED MARTIN ENERGY, LLC, priority 2016, dated 2023).

What all share (format): physicochemical
The nature of data set [1]: Conductivity of aqueous solution. Conditions: 1 M aqueous solution, pH 11, absence of other electrolytes. The text has this:
(§1) First, it has a reduction potential of approximately 0.6 V versus a saturated calomel electrode, which is desirably higher than that of iron hexacyanide coordination compounds (increase of 0.25 V).

Another data set is described as follows: Aqueous solubility.
From the text: as §1

Data set [2] can be described thus: Electrochemical kinetics by cyclic voltammetry. The settings on record: also in alkaline aqueous electrolyte solutions; substantially reversible = anodic/cathodic peak difference less than about 0.3 V.
From the text: The high positive half-cell reduction potentials can provide significant advantages when incorporated in flow batteries, particularly in comparison to the commonly used iron hexacyanide coordination compounds. The high positive reduction potential can allow improved open circuit potential, voltage efficiency and current efficiency values to be realized. In addition, the improved solubility of many nitroxide compounds compared to iron hexacyanide coordination compounds allows improved energy density values to be realized.
The nitroxide compound defined by Structure 12 has the chemical name [2,2,6,6-tetramethyl-4-(sulfooxy)piperidin-1-yl]oxidanyl (also referred to herein as TEMPOSO). Without being bound by any theory or mechanism, it is believed that the sulfate (sulfooxy) group can stabilize the nitroxide group when the six-membered ring is in its “boat”, configuration. […] Under alkaline aqueous solutions, the deprotonated anionic form of Structure 12 can be stabilized after oxidation of the radical through lone pair donation from the sulfooxy group to the resulting nitrogen-centered cation.
as §1

The nature of data set [3]: Reduction potential versus a saturated calomel electrode.
From the text: as §1

Consider “[2,2,6,6-tetramethyl-4-(sulfooxy)piperidin-1-yl]oxidanyl [TEMPOSO]”, for which the conductivity result in data set [1] is recorded as “about 50 mS/cm”. In the data set “Aqueous solubility”, this substance gave an aqueous solubility of at least 1800 mM. For the same substance, in data set [2], the electrochemical kinetics entry was “substantially reversible”. In data set [3], the “increase of reduction potential over iron hexacyanide coordination compounds” value was determined as 0.25 V and the reduction potential result is “approximately 0.6 V”.
